This is an account of results in patent publication US20130072714A1, “BIOBASED COMPOSITIONS OF DIAMMONIUM SUCCINATE, MONOAMMONIUM SUCCINATE AND/OR SUCCINIC ACID AND DERIVATIVES THEREOF” (BioAmber International S.à.r.l., priority 2011, published 2013).

The nature of this data set: Heated color test: SA plus 1,4-butanediol with trace glucose and/or alanine, 180° C., visual inspection. The data set is classed as physicochemical. To be noted: 1.0 gram 1,4-butanediol plus 0.5 gram SA, 2 hours. Here is the method:
Glass vials were charged with 1,4-butanediol, pure SA, and trace levels of either glucose, alanine, or both. The vials were heated at 180° C. for 2 hours and any color changes observed by visual inspection. [table]

Structures are written as SMILES. Entries after “also recorded” stand apart in the source; their conditions may differ.

Turning to `O=C(O)CCC(=O)O` [SA, succinic acid], the “color change on heating, two impurities” value by setting is: (glucose 5 ppm, alanine 5 ppm) “No color”; (glucose 5 ppm, alanine 50 ppm) “yellow color; also recorded: Slight”; (glucose 5 ppm, alanine 500 ppm) “Slight”; (glucose 50 ppm, alanine 5 ppm) “No color”; (glucose 50 ppm, alanine 50 ppm) “Slight”; (glucose 50 ppm, alanine 500 ppm) “Light”. For the same compound, the “color change on heating, two impurities” value is “No color” (glucose 500 ppm, alanine 5 ppm); “Slight” (glucose 500 ppm, alanine 50 ppm); “Light” (glucose 500 ppm, alanine 500 ppm).
Consider `C[C@H](N)C(=O)O` [Alanine, alanine], for which the “color change on heating, single impurity” value is, setting by setting: (impurity 10 ppm) “No color”; (impurity 100 ppm) “No color”; (impurity 1000 ppm) “Slight yellow”.
